According to patent EP0314528B1, “Article for the controlled release and delivery of substances to animal tissues” (HERCON LABORATORIES CORPORATION, priority 1987, dated 1989):

How the values were obtained:
[1] = system: rat footpad; conditions: applied topically to rat footpad; cited from earlier work
[2] = system: cyclooxygenase; conditions: cited from earlier work
[3] = system: leukotriene C4; conditions: cited from earlier work
[4] = system: prostaglandin E2; conditions: cited from earlier work
[5] = system: guinea pig skin; conditions: compared with indomethacin; cited from earlier work
[6] = system: human subject previously sensitized to trifluoperazine; test: Contact allergic dermatitis to trifluoperazine patches with incorporated fluocinonide, sensitized subject; format: in vivo; conditions: 2% fluocinonide incorporated in the trifluoperazine patch
Source text: (§1) The Grading System for this example is as follows: +/- faint, or spotty, pink color within test site; 1 uniform pink color covering all of test site; 2 uniform pink to red color covering all of test site; 3 uniform bright red color covering all of test site; 4 uniform bright red color covering all of test side with edema, blisters, or weeping.
(§2) Objective - To block the contact allergic dermatitis which occurs following application of trifluoperazine patches to the skin through the incorporation of fluocinonide in the patches. Materials - One formulation of the tranquilizer drug trifluoperazine was used in which either 0% or 2% fluocinonide was incorporated. Thus, the following formulations were prepared: […]
Methods - Two patches containing trifluoperazine and either 0% or 2% fluocinonide were applied to the upper arm of a single human subject previously sensitized to trifluoperazine. The patches were removed after two days and the sites read immediately and 24 and 48 hours later as well. […]

[7] = system: human subject previously sensitized to fluphenazine; test: Contact allergic dermatitis to fluphenazine patches with incorporated fluocinonide, sensitized subject; format: in vivo; conditions: 1% or 5% fluocinonide incorporated in the fluphenazine patch
Source text: as §1
Objective - To block contact dermatitis observed following application of fluphenazine patches to the skin through incorporation of fluocinonide in the patch. Materials - One formulation of the anti-psychotic drug fluphenazine was used in which either 0%, 1% or 5% fluocononide was incorporated. Thus, the following formulations were prepared: […]
Methods - Three patches containing fluphenazine and fluocinonide at either 0%, 1% or 5% of fluocinonide were applied to the upper arm of a single human subject previously sensitized to fluphenazine. The patches were removed at 48 hours and the sites observed for signs of allergic dermatitis immediately and at 72 and 96 hours. […]

[8] = system: human subject; test: Contact irritant dermatitis to RO 22-1327 patches with incorporated fluocinonide; format: in vivo; conditions: 1.0% fluocinonide incorporated into the RO 22-1327 patch
Source text: as §1
Objective - To block the contact irritant dermatitis observed following application of RO 22-1327 patches to the skin through the incorporation of fluocinonide in the patch. Materials - One formulation of the antihypertensive drug RO 22-1327 was used, in which either 0%, 0.1%. 1.0% or 5% fluocinonide was incorporated. Methods - Four patches containing RO 22-1327 and fluocinonide at either 0%, 0.1%, 1.0%. or 5.0% were applied to the upper arms (two per arm) of a single human subject not previously exposed to this drug. The patches were removed at 8 hours and the sites observed for signs of dermatitis immediately and 16 hours later. In a second test. one RO 22-1327 patch containing 1.0% fluocinonide was applied to the upper arm of the same human subject as above and removed after 24 hours. The site was examined immediately for signs of dermatitis.

[9] = system: human subject previously sensitized to clonidine; test: Contact allergic dermatitis to clonidine patches with incorporated fluocinonide, sensitized subject; format: in vivo; conditions: 2% fluocinonide incorporated in the clonidine patch
Source text: as §1
as §2, with “clonidine” for “trifluoperazine”, “through” for “through the”, “anti-hypertensive” for “tranquilizer”, “incorporated. A second formulation containing no clonidine was also tested.” for “incorporated.”
Methods - Two patches containing clonidine and either 0% or 2% fluocinonide were applied to the upper back of a single human subject previously sensitized to clonidine. A third patch containing no clonidine and no fluocinonide was also applied as a placebo. The patches were removed after 7 days and the sites read immediately and on the 8th day as well. […]

[10] = system: human subject; test: Contact irritant dermatitis to guanfacine patches with incorporated hydrocortisone; format: in vivo; conditions: 23 hour and 1 week observation
Source text: as §1
Objective - To block the contact irritant dermatitis observed following application of guanfacine patches to the skin through the incorporation of hydrocortisone in the patch. Materials - Two formulations of the antihypertensive drug guanfacine were used in this study. Into each was incorporated hydrocortisone at either 0.5% or 2.0%. Control patches containing no hydrocortisone were also used. Thus, the following formulations were prepared: […]
(To make the 0.5% hydrocortisone formulations, 20 mg hydrocortisone was added to 4 grams of the above formulations. To make 2.0% hydrocortisone formulations, 80 mg of hydrocortisone was added to 4 grams of the above two formulations). Methods - Three patches of each of the two guanfacine formulations, containing either 0%, 0.5% or 2.0% hydrocortisone, were applied to the upper arm of a single human subject not previously exposed to this drug. The patches were removed after 23 hours and the sites observed for signs of dermatitis. One week later, the sites were again observed.

COc1cc(-c2nc3ncccc3o2)cc(C(C)(C)C)c1 [2-(3-(1,1-dimethylethyl)5-methoxyphenyl-oxazolo(4,5-b)pyridine]
analgesic effect [1]: effective analgesic | cyclooxygenase inhibition [2]: inhibitor | inhibition of leukotriene C4 synthesis [3]: not | inhibition of prostaglandin E2 synthesis [4]: inhibitor | inhibiting ultra-violet light-induced erythema [5]: as potent as indomethacin

CC(=O)OCC(=O)[C@@]12OC(C)(C)O[C@@H]1C[C@H]1[C@@H]3C[C@H](F)C4=CC(=O)C=C[C@]4(C)[C@@]3(F)[C@@H](O)C[C@@]12C [fluocinonide]
magnitude of the allergic reaction (erythema and blistering) caused by trifluoperazine [6]: significantly reduced | allergic reaction (erythema and blistering) caused by fluphenazine [7]: almost completely blocked | irritant dermatitis associated with the use of RO 22-1327 [8]: significant reduction | allergic reaction (erythema and blistering) caused by clonidine [9]: significantly reduced

C[C@]12CCC(=O)C=C1CC[C@@H]1[C@@H]2[C@@H](O)C[C@@]2(C)[C@H]1CC[C@]2(O)C(=O)CO [hydrocortisone]
adverse reactions (irritant dermatitis) ([10]; 0.5% hydrocortisone guanfacine patches): variable | adverse reactions (irritant dermatitis) ([10]; 2.0% hydrocortisone guanfacine patches): No adverse reactions
